Test results: ChEMBL document CHEMBL5143550, “Thiol- and Disulfide-Containing Vancomycin Derivatives Against Bacterial Resistance and Biofilm Formation” (2021)
Converted amounts (≈) assume the structure as drawn.

How the values were obtained:
Format in all cases: functional
[1] = test system: Staphylococcus aureus; experiment: Antibacterial activity against Staphylococcus aureus ATCC 25923 assessed as inhibition of bacterial growth by standard broth microdilution susceptibility method
[2] = test system: Staphylococcus aureus; experiment: Antibacterial activity against methicillin-resistant Staphylococcus aureus ATCC 43300 assessed as inhibition of bacterial growth by standard broth microdilution susceptibility method
[3] = test system: Enterococcus faecalis; experiment: Antibacterial activity against VanB-resistant Enterococcus faecalis ATCC 51299 assessed as inhibition of bacterial growth by standard broth microdilution susceptibility method
[4] = test system: Enterococcus gallinarum; experiment: Antibacterial activity against VanC-resistant Enterococcus gallinarum ATCC 700221 assessed as inhibition of bacterial growth by standard broth microdilution susceptibility method
[5] = test system: Enterococcus faecalis; experiment: Antibiofilm activity against VanB-resistant Enterococcus faecalis ATCC 51299 assessed as inhibition of biofilm formation in BHIG medium incubated for 24 hrs by resazurin assay
[6] = test system: Enterococcus faecalis; experiment: Antibiofilm activity against VanB-resistant Enterococcus faecalis ATCC 51299 assessed as inhibition of biofilm formation by measuring decrease in RFU in BHIG medium incubated for 24 hrs by resazurin assay
[7] = test system: Enterococcus faecalis; experiment: Antibacterial activity against VanB-resistant Enterococcus faecalis ATCC 51299 assessed as inhibition of colony formation in BHIG medium incubated for 24 hrs by resazurin assay
[8] = test system: Enterococcus faecalis; experiment: Antibacterial activity against VanB-resistant Enterococcus faecalis ATCC 51299 assessed as inhibition of bacterial growth in BHIG medium incubated for 24 hrs by resazurin assay
[9] = test system: Enterococcus faecalis; experiment: Antibiofilm activity against VanB-resistant Enterococcus faecalis ATCC 51299 assessed as inhibition of biofilm formation in BHIG medium incubated for 24 hrs by resazurin assay relative to vancomycin
[10] = test system: Staphylococcus aureus; experiment: Antibacterial activity against vancomycin-intermediate Staphylococcus aureus ATCC NRS1 assessed as inhibition of bacterial growth by standard broth microdilution susceptibility method
[11] = test system: Staphylococcus aureus; experiment: Antibacterial activity against heterogenous vancomycin-intermediate Staphylococcus aureus ATCC NRS24 assessed as inhibition of bacterial growth by standard broth microdilution susceptibility method
[12] = test system: Enterococcus faecium; experiment: Antibacterial activity against VanA-resistant Enterococcus faecium MMX0485 assessed as inhibition of bacterial growth by standard broth microdilution susceptibility method
[13] = test system: Streptococcus pneumoniae; experiment: Antibacterial activity against […] assessed as inhibition of bacterial growth by standard broth microdilution susceptibility method
[14] = test system: Clostridioides difficile; experiment: Antibacterial activity against Clostridium difficile ATCC 43255 assessed as inhibition of bacterial growth by standard broth microdilution susceptibility method
[15] = test system: Moraxella catarrhalis; experiment: Antibacterial activity against Moraxella catarrhalis ATCC 8193 assessed as inhibition of bacterial growth by standard broth microdilution susceptibility method
[16] = test system: Enterococcus faecium; experiment: Potency index, ratio of vancomycin MIC to test compound MIC for antibacterial activity against VanA-resistant Enterococcus faecium MMX0485 assessed as inhibition of bacterial growth by standard broth microdilution susceptibility method
[17] = test system: Enterococcus faecalis; experiment: Potency index, ratio of vancomycin MIC to test compound MIC for antibacterial activity against VanB-resistant Enterococcus faecalis ATCC 51299 assessed as inhibition of bacterial growth by standard broth microdilution susceptibility method
[18] = test system: Enterococcus gallinarum; experiment: Potency index, ratio of vancomycin MIC to test compound MIC for antibacterial activity against VanC-resistant Enterococcus gallinarum ATCC 700221 assessed as inhibition of bacterial growth by standard broth microdilution susceptibility method
[19] = test system: Staphylococcus aureus; experiment: Potency index, ratio of vancomycin MIC to test compound MIC for antibacterial activity against vancomycin-intermediate Staphylococcus aureus ATCC NRS1 assessed as inhibition of bacterial growth by standard broth microdilution susceptibility method
[20] = test system: Staphylococcus aureus; experiment: Potency index, ratio of vancomycin MIC to test compound MIC for antibacterial activity against heterogenous vancomycin-intermediate Staphylococcus aureus ATCC NRS24 assessed as inhibition of bacterial growth by standard broth microdilution susceptibility method

| Compound | MIC [1] [µg/mL] | MIC [2] [µg/mL] | MIC [3] [µg/mL] | MIC [4] [µg/mL] | MBIC [5] [µg/mL] | inhibition (INH) [6] [%] | Activity [7] [µg/mL] | inhibition (INH) [8] [%] | Ratio [9] | MIC [10] [µg/mL] | MIC [11] [µg/mL] | MIC [12] [µg/mL] | MIC [13] [µg/mL] | MIC [14] [µg/mL] | MIC [15] [µg/mL] | Ratio [16] | Ratio [17] | Ratio [18] | Ratio [19] | Ratio [20] |
| --- | --- | --- | --- | --- | --- | --- | --- | --- | --- | --- | --- | --- | --- | --- | --- | --- | --- | --- | --- | --- |
| CN[C@H](CC(C)C)C(=O)N[C@H]1C(=O)N[C@@H](CC(N)=O)C(=O)N[C@H]2C(=O)N[C@H]3C(=O)N[C@H](C(=O)N[C@H](C(=O)NCCS)c4cc(O)cc(O)c4-c4cc3ccc4O)[C@H](O)c3ccc(c(Cl)c3)Oc3cc2cc(c3O[C@@H]2O[C@H](CO)[C@@H](O)[C@H](O)[C@H]2O[C@H]2C[C@](C)(N)[C@H](O)[C@H](C)O2)Oc2ccc(cc2Cl)[C@H]1O | 4 (≈ 2.65 µM) | 4 (≈ 2.65 µM) | 2 (≈ 1.33 µM) | 2 (≈ 1.33 µM) | 4 | 99 | 4 | 100 | 16 |  |  |  |  |  |  |  |  |  |  |  |
| CN[C@H](CC(C)C)C(=O)N[C@H]1C(=O)N[C@@H](CC(N)=O)C(=O)N[C@H]2C(=O)N[C@H]3C(=O)N[C@H](C(=O)N[C@H](C(=O)NCCSSCCCCC[N+](C)(C)C)c4cc(O)cc(O)c4-c4cc3ccc4O)[C@H](O)c3ccc(c(Cl)c3)Oc3cc2cc(c3O[C@@H]2O[C@H](CO)[C@@H](O)[C@H](O)[C@H]2O[C@H]2C[C@](C)(N)[C@H](O)[C@H](C)O2)Oc2ccc(cc2Cl)[C@H]1O | 1 | 0.5 | 8 | 4 | 16 | 87 | 16 | 97 |  | 1 | > 32 | 16 | 0.06 | ≤ 0.015 | 2 | 8 | 8 | 8 |  |  |
| CCCCCCSSCCNC(=O)[C@H]1NC(=O)[C@H]2NC(=O)[C@H](NC(=O)[C@@H]3NC(=O)[C@H](CC(N)=O)NC(=O)[C@H](NC(=O)[C@@H](CC(C)C)NC)[C@H](O)c4ccc(c(Cl)c4)Oc4cc3cc(c4O[C@@H]3O[C@H](CO)[C@@H](O)[C@H](O)[C@H]3O[C@H]3C[C@](C)(N)[C@H](O)[C@H](C)O3)Oc3ccc(cc3Cl)[C@H]2O)c2ccc(O)c(c2)-c2c(O)cc(O)cc21 | 0.12 (≈ 0.0739 µM) | 0.12 (≈ 0.0739 µM) | 0.25 (≈ 0.154 µM) | 4 (≈ 2.46 µM) | 2 | 100 | 2 | 100 |  | 0.5 (≈ 0.308 µM) | 0.5 (≈ 0.308 µM) | 16 (≈ 9.85 µM) | 0.06 (≈ 0.0369 µM) | 0.5 (≈ 0.308 µM) | 2 (≈ 1.23 µM) | 16 | 16 |  | 16 | 16 |
| CN[C@H](CC(C)C)C(=O)N[C@H]1C(=O)N[C@@H](CC(N)=O)C(=O)N[C@H]2C(=O)N[C@H]3C(=O)N[C@H](C(=O)N[C@H](C(=O)NCCSSCC[N+](C)(C)C)c4cc(O)cc(O)c4-c4cc3ccc4O)[C@H](O)c3ccc(c(Cl)c3)Oc3cc2cc(c3O[C@@H]2O[C@H](CO)[C@@H](O)[C@H](O)[C@H]2O[C@H]2C[C@](C)(N)[C@H](O)[C@H](C)O2)Oc2ccc(cc2Cl)[C@H]1O | 1 | 0.5 | 16 | 4 | 16 | 91 | 16 | 100 |  | 0.5 | > 32 | 32 | 0.25 | ≤ 0.015 | 2 | 8 | 8 | 8 |  |  |
| CCCCCCCCCCCSSCCNC(=O)[C@H]1NC(=O)[C@H]2NC(=O)[C@H](NC(=O)[C@@H]3NC(=O)[C@H](CC(N)=O)NC(=O)[C@H](NC(=O)[C@@H](CC(C)C)NC)[C@H](O)c4ccc(c(Cl)c4)Oc4cc3cc(c4O[C@@H]3O[C@H](CO)[C@@H](O)[C@H](O)[C@H]3O[C@H]3C[C@](C)(N)[C@H](O)[C@H](C)O3)Oc3ccc(cc3Cl)[C@H]2O)c2ccc(O)c(c2)-c2c(O)cc(O)cc21 | 1 (≈ 0.59 µM) | 1 (≈ 0.59 µM) | 0.25 (≈ 0.148 µM) | 4 (≈ 2.36 µM) | 2 | 92 | 2 | 99 |  | 0.5 (≈ 0.295 µM) | 1 (≈ 0.59 µM) | 2 (≈ 1.18 µM) | 0.25 (≈ 0.148 µM) | 0.12 (≈ 0.0708 µM) | 0.5 (≈ 0.295 µM) | 16 | 16 |  | 16 | 16 |
| CN[C@H](CC(C)C)C(=O)N[C@H]1C(=O)N[C@@H](CC(N)=O)C(=O)N[C@H]2C(=O)N[C@H]3C(=O)N[C@H](C(=O)N[C@H](C(=O)NCCSSCCCCCCCCCCC[N+](C)(C)C)c4cc(O)cc(O)c4-c4cc3ccc4O)[C@H](O)c3ccc(c(Cl)c3)Oc3cc2cc(c3O[C@@H]2O[C@H](CO)[C@@H](O)[C@H](O)[C@H]2O[C@H]2C[C@](C)(N)[C@H](O)[C@H](C)O2)Oc2ccc(cc2Cl)[C@H]1O | 1 | 0.5 | 2 | 2 | 4 | 84 | 4 | 98 | 16 | 0.25 | 8 | 16 | 0.12 | 1 | 1 | 8 | 8 | 8 |  |  |
| CN[C@H](CC(C)C)C(=O)N[C@H]1C(=O)N[C@@H](CC(N)=O)C(=O)N[C@H]2C(=O)N[C@H]3C(=O)N[C@H](C(=O)N[C@H](C(=O)NCCCS)c4cc(O)cc(O)c4-c4cc3ccc4O)[C@H](O)c3ccc(c(Cl)c3)Oc3cc2cc(c3O[C@@H]2O[C@H](CO)[C@@H](O)[C@H](O)[C@H]2O[C@H]2C[C@](C)(N)[C@H](O)[C@H](C)O2)Oc2ccc(cc2Cl)[C@H]1O | 4 (≈ 2.63 µM) | 4 (≈ 2.63 µM) | 4 (≈ 2.63 µM) | 1 (≈ 0.657 µM) | 4 | 95 | 4 | 100 | 16 | 8 (≈ 5.25 µM) | > 32 | 1 (≈ 0.657 µM) | ≤ 0.03 | 0.12 (≈ 0.0788 µM) | 16 (≈ 10.5 µM) |  |  |  |  |  |
